Measured values reported in patent US20210323950A1, “HERBICIDALLY ACTIVE BICYCLIC BENZOYLPYRAZOLES” (Bayer Aktiengesellschaft, priority 2018, published 2021).

Legend:
Assay type in all cases: in vivo
[1] = tested on: Echinochloa crus-galli (ECHCG); assay: Pre-emergence herbicidal action against ECHCG; conditions: 80 g/ha, scored visually after about 3 weeks vs untreated controls
Description: (§1) ECHCG: Echinochloa crus-galli 1. Pre-Emergence Herbicidal Action and Crop Plant Compatibility Seeds of monocotyledonous and dicotyledonous weed plants and crop plants are placed in plastic or organic planting pots and covered with soil. The compounds of the invention, formulated in the form of wettable powders (WP) or as emulsion concentrates (EC), are then applied onto the surface of the covering soil as aqueous suspension or emulsion with addition of 0.5% additive at a water application rate of […] (converted). After the treatment, the pots are placed in a greenhouse and kept under good growth conditions for the trial plants. After about 3 weeks, the effect of the preparations is scored visually in comparison with untreated controls as percentages. The tables below show the herbicidal activity of numerous compounds according to the invention against important harmful plants. For example, 100% activity=the plants have died, 0% activity=like control plants.

[2] = tested on: Setaria viridis (SETVI); assay: Pre-emergence herbicidal action against SETVI; conditions: 80 g/ha, scored visually after about 3 weeks vs untreated controls
Description: as §1, with “SETVI: Setaria viridis” for “ECHCG: Echinochloa crus-galli”

[3] = tested on: Abutilon theophrasti (ABUTH); assay: Pre-emergence herbicidal action against ABUTH; conditions: 80 g/ha, scored visually after about 3 weeks vs untreated controls
Description: as §1, with “ABUTH: Abutilon theophrasti” for “ECHCG: Echinochloa crus-galli”

[4] = tested on: Amaranthus retroflexus (AMARE); assay: Pre-emergence herbicidal action against AMARE; conditions: 80 g/ha, scored visually after about 3 weeks vs untreated controls
Description: as §1, with “AMARE: Amaranthus retroflexus” for “ECHCG: Echinochloa crus-galli”

[5] = tested on: Stellaria media (STEME); assay: Pre-emergence herbicidal action against STEME; conditions: 80 g/ha, scored visually after about 3 weeks vs untreated controls
Description: as §1, with “STEME: Stellaria media” for “ECHCG: Echinochloa crus-galli”

[6] = tested on: Viola tricolor (VIOTR); assay: Pre-emergence herbicidal action against VIOTR; conditions: 80 g/ha, scored visually after about 3 weeks vs untreated controls
Description: as §1, with “VIOTR: Viola tricolor” for “ECHCG: Echinochloa crus-galli”

[7] = tested on: Echinochloa crus-galli (ECHCG); assay: Post-emergence herbicidal action against ECHCG; conditions: 20 g/ha, post-emergence at one-leaf stage, rated visually after about 3 weeks vs untreated controls
Experimental: (§2) ECHCG: Echinochloa crus-galli 2. Post-Emergence Herbicidal Action and Crop Plant Compatibility Seeds of monocotyledonous and dicotyledonous weeds and crop plants are placed in sandy loam in plastic or organic planting pots, covered with soil and cultivated in a greenhouse under controlled growth conditions. 2 to 3 weeks after sowing, the test plants are treated at the one-leaf stage. The compounds of the invention, formulated in the form of wettable powders (WP) or as emulsion concentrates (EC), are then sprayed onto the green parts of the plants as aqueous suspension or emulsion with addition of 0.5% additive at a water application rate of […] (converted). After the test plants had been kept in the greenhouse under optimum growth conditions for about 3 weeks, the activity of the preparations is rated visually in comparison to untreated controls. The tables below show the herbicidal activity of numerous compounds according to the invention against important harmful plants. For example, 100% activity=the plants have died, 0% activity=like control plants.

[8] = tested on: Setaria viridis (SETVI); assay: Post-emergence herbicidal action against SETVI; conditions: 20 g/ha, post-emergence at one-leaf stage, rated visually after about 3 weeks vs untreated controls
Experimental: as §2, with “SETVI: Setaria viridis” for “ECHCG: Echinochloa crus-galli”

[9] = tested on: Abutilon theophrasti (ABUTH); assay: Post-emergence herbicidal action against ABUTH; conditions: 20 g/ha, post-emergence at one-leaf stage, rated visually after about 3 weeks vs untreated controls
Experimental: as §2, with “ABUTH: Abutilon theophrasti” for “ECHCG: Echinochloa crus-galli”

[10] = tested on: Viola tricolor (VIOTR); assay: Post-emergence herbicidal action against VIOTR; conditions: 20 g/ha, post-emergence at one-leaf stage, rated visually after about 3 weeks vs untreated controls
Experimental: as §2, with “VIOTR: Viola tricolor” for “ECHCG: Echinochloa crus-galli”

[11] = tested on: Veronica persica (VERPE); assay: Pre-emergence herbicidal action against VERPE; conditions: 80 g/ha, scored visually after about 3 weeks vs untreated controls
Description: as §1, with “VERPE: Veronica persica” for “ECHCG: Echinochloa crus-galli”

[12] = tested on: Stellaria media (STEME); assay: Post-emergence herbicidal action against STEME; conditions: 20 g/ha, post-emergence at one-leaf stage, rated visually after about 3 weeks vs untreated controls
Experimental: as §2, with “STEME: Stellaria media” for “ECHCG: Echinochloa crus-galli”

[13] = tested on: Amaranthus retroflexus (AMARE); assay: Post-emergence herbicidal action against AMARE; conditions: 20 g/ha, post-emergence at one-leaf stage, rated visually after about 3 weeks vs untreated controls
Experimental: as §2, with “AMARE: Amaranthus retroflexus” for “ECHCG: Echinochloa crus-galli”

Structure (SMILES)	Pre-emergence action against ECHCG [1]	Pre-emergence action against SETVI [2]	Pre-emergence action against ABUTH [3]	Pre-emergence action against AMARE [4]	Pre-emergence action against STEME [5]	Pre-emergence action against VIOTR [6]	Post-emergence action against ECHCG [7]	Post-emergence action against SETVI [8]	Post-emergence action against ABUTH [9]	Post-emergence action against VIOTR [10]	Pre-emergence action against VERPE [11]	Post-emergence action against STEME [12]	Post-emergence action against AMARE [13]
CCn1ncc(C(=O)c2ccc(C(F)(F)F)c3c2OCCS3)c1O [Example 1-20]	100%	100%	100%	100%	100%	100%	80%	80%	80%	–	–	–	–
Cn1nc(CCC(F)(F)F)c(C(=O)c2ccc(C(F)(F)F)c3c2OCS3)c1O [Example 1-127]	–	–	–	–	–	–	–	–	–	80%	–	–	–
Cc1nn(C)c(O)c1C(=O)c1ccc(C(F)(F)F)c2c1OCCS2 [Example 1-25]	90%	100%	100%	100%	90%	100%	90%	–	–	–	80%	100%	–
Cn1nc(C2CC2)c(C(=O)c2ccc(C(F)(F)F)c3c2OCCS3(=O)=O)c1O [Example 1-119]	80%	–	100%	100%	100%	100%	–	–	90%	–	90%	100%	100%
CCn1ncc(C(=O)c2ccc(C(F)(F)F)c3c2SCS3)c1O [Example 1-63]	–	–	–	100%	90%	100%	80%	–	80%	–	–	80%	100%
